According to US10519111B2, “UV absorbing compounds, compositions comprising same and uses thereof” (CORAL SUNSCREEN PTY LTD, priority 2013, dated 2019):

What was measured:
[1] = UV absorption properties (λmax, molar extinction coefficient ε, efficiency E 1%, 1 cm); type: physicochemical
[2] = Critical wavelength (λcrit), approximate in-house measurement; type: physicochemical
Description: As the precise test for critical wavelength was unable to be replicated exactly by the inventors due to the need for specialist equipment and a specific calibration of the spectrophotometer, these values are only approximate to a degree. […] This represents a highly useful result and so, compounds based around this benzoyl substitution pattern shown, are especially preferred.

[3] = Table 3, compounds from isocyanates or isothiocyanates
[4] = Table 4, N-aryl enamines with isocyanates
[5] = Table 5, acylation of N-t-Bu enamine
[6] = Table 5, values in order of the λmax values
[7] = Table 5, values in order of the λmax values, in M-1 cm-1
[8] = Table 6B, N-tert-butyl compounds
[9] = Table 7, values in order of the λmax values

In the case of `Cc1ccc(S(=O)(=O)NC(=O)C2=CN(C(C)(C)C)CCC2(C)C)cc1` [drawing 64], the “Ε (1%, 1 cm)” value ([1]; Table 3) is reported as 950, the λmax [1, 3] is reported as 304 nm and the ε ([1]; Table 3, in M-1 cm-1) is reported as 34588. For the same compound, the λcrit ([2]; Table 3) was 319 nm.

With `CC1(C)CCN(C(C)(C)C)C=C1C(=O)Nc1ccc(NC(=O)C2=CN(C(C)(C)C)CCC2(C)C)cc1` [drawing 65] the “Ε (1%, 1 cm)” value ([1]; Table 3) was 1456, the λmax [1, 3] was 322 nm and the ε ([1]; Table 3, in M-1 cm-1) was 71962. For the same compound, the λcrit ([2]; Table 3) was 346 nm.

With `CC1(C)CCN(C(C)(C)C)C=C1C(=O)Nc1cccc(NC(=O)C2=CN(C(C)(C)C)CCC2(C)C)c1` [drawing 66] the “Ε (1%, 1 cm)” value ([1]; Table 3) was 1129, the λmax [1, 3] was 313 nm and the ε ([1]; Table 3, in M-1 cm-1) was 55779. The λcrit ([2]; Table 3) was 328 nm.

In the case of `Cc1ccc(N2C=C(C(=O)Nc3ccc(C)c(NC(=O)C4=CN(C(C)(C)C)CCC4(C)C)c3)C(C)(C)CC2)cc1` [drawing 67], the “Ε (1%, 1 cm)” value ([1]; Table 4) is reported as 954, the λmax [1, 4] is reported as 314 nm and the ε ([1]; Table 4, in M-1 cm-1) is reported as 51743. It also gave a λcrit ([2]; Table 4) of 340 nm.

For `CC1(C)CCN(c2ccc(C(C)(C)C)cc2)C=C1C(=O)Nc1ccc(NC(=O)C2=CN(c3ccc(C(C)(C)C)cc3)CCC2(C)C)cc1` [drawing 68], the “Ε (1%, 1 cm)” value ([1]; Table 4) was 1054, the λmax [1, 4] was 331 nm and the ε ([1]; Table 4, in M-1 cm-1) was 68095. It also gave a λcrit ([2]; Table 4) of 354 nm.

For `Cc1ccc(N2C=C(C(=O)Nc3ccccc3)C(C)(C)CC2)cc1` [drawing 69], the “Ε (1%, 1 cm)” value ([1]; Table 4) was 1060, the λmax [1, 4] was 323 nm and the ε ([1]; Table 4, in M-1 cm-1) was 33948. It also gave a λcrit ([2]; Table 4) of 342 nm.

In the case of `CC1(C)CCN(c2ccc(C(C)(C)C)cc2)C=C1C(=O)Nc1ccccc1` [drawing 70], the “Ε (1%, 1 cm)” value ([1]; Table 4) is reported as 987, the λmax [1, 4] is reported as 324 nm and the ε ([1]; Table 4, in M-1 cm-1) is reported as 35759. It also gave a λcrit ([2]; Table 4) of 342 nm.

In the case of `CC1(C)CCN(C(C)(C)C)C=C1C(=O)CCCCCCCCC(=O)C1=CN(C(C)(C)C)CCC1(C)C` [drawing 72], the λmax [1, 5] is reported as 307 nm, the “Ε (1%, 1 cm)” value [1, 6] is reported as 1095 and the ε [1, 7] is reported as 54797. The λcrit ([2]; Table 5) was 322 nm.

For `CC1(C)CCN(C(C)(C)C)C=C1C(=O)C1=CN(C(C)(C)C)CCC1(C)C` [drawing 73], the λmax [1, 5] was 305 nm, the “Ε (1%, 1 cm)” value [1, 6] was 456 and the ε [1, 7] was 16425. For the same compound, the “shoulder in the λmax column” value ([1]; Tables 5, 10, 13B) was 330 nm and the λcrit ([2]; Table 5) was 351 nm.

For `CC1(C)CCN(C(C)(C)C)C=C1C(=O)COc1ccccc1` [drawing 74], the λmax [1, 5] was 313 nm, the “Ε (1%, 1 cm)” value [1, 6] was 869 and the ε [1, 7] was 26154. The λcrit ([2]; Table 5) was 329 nm.

For `CC1(C)CCN(C(C)(C)C)C=C1C(=O)c1ccncc1` [drawing 75], the λmax [1, 5] was 316 nm, the “Ε (1%, 1 cm)” value [1, 6] was 866 and the ε [1, 7] was 23556. It also gave a λcrit ([2]; Table 5) of 354 nm.

In the case of `CC(C)CN1C=C(C(=O)c2ccc(N(C)C)cc2)C(C)(C)CC1` [drawing 83], the “E (1%, 1 cm)” value ([1]; Table 6A) is reported as 544, the ε ([1]; Table 6A) is reported as 17000 M⁻¹ cm⁻¹ and the λmax ([1]; Table 6A, N-isobutyl-C3-benzoyl compounds) is reported as 336 nm. The λcrit ([2]; Table 6A) was 362 nm.

With `C=CC(=O)C1=CN(C(C)(C)C)CCC1(C)C` [drawing 92] the “E (1%, 1 cm)” value ([1]; Table 6B) was 1127, the λmax [1, 8] was 328 nm and the ε ([1]; Table 6B, in M-1 cm-1) was 24907. For the same compound, the λcrit ([2]; Table 6B) was 360 nm.

In the case of `CC1(C)CCN(C(C)(C)C)C=C1C(=O)/C=C/c1ccccc1` [drawing 93], the “E (1%, 1 cm)” value ([1]; Table 6B) is reported as 781, the λmax [1, 8] is reported as 360 nm and the ε ([1]; Table 6B, in M-1 cm-1) is reported as 23198. It also gave a λcrit ([2]; Table 6B) of 385 nm.

For `CC1(C)CCN(C(C)(C)C)C=C1C(=O)c1ccc(Br)cc1` [drawing 94], the “E (1%, 1 cm)” value ([1]; Table 6B) was 785, the λmax [1, 8] was 317 nm and the ε ([1]; Table 6B, in M-1 cm-1) was 27506. For the same compound, the λcrit ([2]; Table 6B) was 347 nm.

With `CN(C)c1ccc(C(=O)C2=CN(C(C)(C)C)CCC2(C)C)cc1` [drawing 95] the “E (1%, 1 cm)” value ([1]; Table 6B) was 793, the λmax [1, 8] was 333 nm and the ε ([1]; Table 6B, in M-1 cm-1) was 24966. The λcrit ([2]; Table 6B) was 361 nm.

For `CC(C)(C)Oc1ccc(C(=O)C2=CN(C(C)(C)C)CCC2(C)C)cc1` [drawing 96], the “E (1%, 1 cm)” value ([1]; Table 6B) was 949, the λmax [1, 8] was 317 nm and the ε ([1]; Table 6B, in M-1 cm-1) was 32556. For the same compound, the λcrit ([2]; Table 6B) was 344 nm.

In the case of `CC1(C)CCN(C(C)(C)C)C=C1C(=O)c1ccc(C(=O)C2=CN(C(C)(C)C)CCC2(C)C)cc1` [drawing 97], the “E (1%, 1 cm)” value ([1]; Table 6B) is reported as 732, the λmax [1, 8] is reported as 317 nm and the ε ([1]; Table 6B, in M-1 cm-1) is reported as 33982. The λcrit ([2]; Table 6B) was 355 nm.

In the case of `CC1(C)CCN(C(C)(C)C)C=C1C(=O)c1ccc(C(=O)O)cc1` [drawing 98], the “E (1%, 1 cm)” value ([1]; Table 6B) is reported as 549, the λmax [1, 8] is reported as 317 nm and the ε ([1]; Table 6B, in M-1 cm-1) is reported as 17300. The λcrit ([2]; Table 6B) was 353 nm.

In the case of `CC(C)CN1C=C(C(=O)/C=C/c2ccccc2)C(C)(C)CC1` [drawing 111], the λmax ([1]; Table 7, unsaturated compounds) is reported as 360 nm, the “E (1%, 1 cm)” value [1, 9] is reported as 533 and the ε [1, 9] is reported as 16000 M⁻¹ cm⁻¹. The λcrit ([2]; Table 7) was 383 nm.

With `C=CC(=O)C1=CN(CC(C)C)CCC1(C)C` [drawing 112] the λmax ([1]; Table 7, unsaturated compounds) was 330 nm, the “E (1%, 1 cm)” value [1, 9] was 915 and the ε [1, 9] was 20500 M⁻¹ cm⁻¹. The λcrit ([2]; Table 7) was 363 nm.

For `CC(C)CN1C=C(C(=O)/C=C/c2ccc(C(F)(F)F)cc2)C(C)(C)CC1` [drawing 113], the λmax ([1]; Table 7, unsaturated compounds) was 369 nm, the “E (1%, 1 cm)” value [1, 9] was 463 and the ε [1, 9] was 17000 M⁻¹ cm⁻¹. It also gave a λcrit ([2]; Table 7) of 388 nm.
